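Briefly, cells in 96-well plates were exposed to five compound concentrations for 48 h, and endpoints were estimated by linear interpolation. The concentration for full growth arrest is given as TGI.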

Some test systems named below: MDA-N; SF-295 CNS; HCC-2998 colon; HS 578T breast; NCI-H226 lung; UACC-62 melanoma; NCI-H460 lung; M14 melanoma; U251 CNS; EKVX NSCLC; ACHN renal; HOP-92 NSCLC; BT-549 breast; PC-3 prostate; DLD-1 colon; M19-MEL melanoma.
What all share (experiment): NCI anticancer screen, dose series, 48 h

As for `CC(=O)NC1=C(C)C(=O)c2c(nc3n2CCC3OC(=O)c2ccccc2)C1=N` (configuration not stated), the TGI in the experiment with MDA-N stood at 0.347 µM; in the experiment on SF-295 CNS it was 6.53 µM; in the experiment with HCC-2998 colon, 3.79 µM; with HS 578T breast it was 5.4 µM; with NCI-H226 lung, 13.9 µM; in the experiment with UACC-62 melanoma it was 1.09 µM. Besides, the TGI in the experiment on NCI-H460 lung was 3.07 µM; in the experiment with M14 melanoma, 2.76 µM; in the experiment on U251 CNS, 9.45 µM; in the experiment on EKVX NSCLC, 6 µM; with ACHN renal it was 3.13 µM; in the experiment with HOP-92 NSCLC, 5.47 µM. The TGI with BT-549 breast amounted to 1.65 µM; with PC-3 prostate, 6.85 µM.

Take `Cc1nc(Cl)c2sc(=S)n(-c3ccc(F)cc3)c2n1`: the TGI in the experiment on MDA-N is 3.95 µM; with SF-295 CNS it was 22.8 µM; with HCC-2998 colon, 20.3 µM; in the experiment with HS 578T breast, 6.24 µM; with NCI-H226 lung, 34.6 µM; in the experiment on UACC-62 melanoma it was 24 µM. Moreover, the TGI in the experiment with NCI-H460 lung came out at 26.5 µM; in the experiment with M14 melanoma it was 8.38 µM; in the experiment with U251 CNS, 17.7 µM; with EKVX NSCLC, 32.9 µM; with ACHN renal, 26.8 µM; in the experiment on HOP-92 NSCLC, 33.1 µM. Besides, the figures for the TGI with BT-549 breast and in the experiment on PC-3 prostate were 12.1 µM and 36.8 µM, respectively.

In the case of `CCOC(=O)[C@@H]1C[C@H]1c1ccc(O)c(O)c1`, the TGI with MDA-N is 37.8 µM; in the experiment on SF-295 CNS it was more than 100 µM; in the experiment with HCC-2998 colon, 91.9 µM; in the experiment with HS 578T breast it was more than 100 µM; with NCI-H226 lung, more than 100 µM; with UACC-62 melanoma, 34.9 µM. Moreover, the TGI in the experiment with NCI-H460 lung was more than 100 µM; in the experiment with M14 melanoma, 73.6 µM; in the experiment with U251 CNS, more than 100 µM; in the experiment on EKVX NSCLC, more than 100 µM; in the experiment on ACHN renal, more than 100 µM; in the experiment on HOP-92 NSCLC it was more than 100 µM. For the same compound, the TGI in the experiment on BT-549 breast and in the experiment with PC-3 prostate was more than 100 µM each time.

As to `CC(NC(=O)C(OC(=O)C(C)NC(=O)OC(C)(C)C)C(C)C)C(=O)OC(C(=O)O)C(C)C` (configuration not stated), the TGI in the experiment on MDA-N, in the experiment on SF-295 CNS, in the experiment on HCC-2998 colon, in the experiment with HS 578T breast, in the experiment with NCI-H226 lung and in the experiment on UACC-62 melanoma was more than 100 µM in each case. Also, the TGI in the experiment with NCI-H460 lung, in the experiment with M14 melanoma, with U251 CNS, in the experiment on EKVX NSCLC, in the experiment with ACHN renal and in the experiment on HOP-92 NSCLC was more than 100 µM throughout. The TGI with BT-549 breast and with PC-3 prostate was more than 100 µM each time.

As to `C#CCn1c(=O)ccn(/C(=C\C(=O)OCC)C(=O)OCC)c1=O`, the TGI amounted to 35.1 µM in the experiment on MDA-N; 43.3 µM in the experiment on SF-295 CNS; 35.9 µM in the experiment on HCC-2998 colon; 63.5 µM in the experiment on HS 578T breast; 40.4 µM in the experiment with NCI-H226 lung; 28.3 µM with UACC-62 melanoma. For the same compound, the TGI in the experiment on NCI-H460 lung was 7.76 µM; with M14 melanoma, 10.3 µM; in the experiment on U251 CNS, 39.8 µM; with EKVX NSCLC, 27.9 µM; in the experiment with ACHN renal it was 3.08 µM; with HOP-92 NSCLC it was 4.5 µM. Further, the TGI is 25.4 µM in the experiment on BT-549 breast and 29.4 µM in the experiment with PC-3 prostate.

In the case of `CC1=NN(c2nc(N)nc(/C(C#N)=C/c3ccc([N+](=O)[O-])o3)n2)C(C)(C)C1`, the TGI is more than 100 µM with MDA-N; 33.8 µM with SF-295 CNS; 39.4 µM in the experiment with HCC-2998 colon; 71.4 µM in the experiment on HS 578T breast; 6.9 µM in the experiment on NCI-H226 lung; 5.31 µM in the experiment with UACC-62 melanoma. Moreover, the TGI in the experiment on NCI-H460 lung was 10.8 µM; in the experiment with M14 melanoma it was 2.75 µM; in the experiment on U251 CNS, 11.3 µM; in the experiment on EKVX NSCLC it was 9.04 µM; in the experiment with ACHN renal, 3.49 µM; in the experiment with HOP-92 NSCLC, 3.4 µM. Moreover, the figures for the TGI with BT-549 breast and in the experiment on PC-3 prostate were 9.24 µM and 21.5 µM, respectively.

Regarding `Nc1nc(Cl)c(N)c(NCC2(CO)CC(Cc3ccccc3)C2)n1` (configuration not stated), the TGI in the experiment with MDA-N, in the experiment on SF-295 CNS, in the experiment with HCC-2998 colon, in the experiment on HS 578T breast, in the experiment on NCI-H226 lung and in the experiment with UACC-62 melanoma was more than 100 µM each time. Moreover, the TGI in the experiment on NCI-H460 lung was more than 100 µM; with M14 melanoma, more than 100 µM; in the experiment on U251 CNS, more than 56.7 µM; in the experiment on EKVX NSCLC it was more than 100 µM; in the experiment on ACHN renal it was more than 100 µM; in the experiment on HOP-92 NSCLC, more than 100 µM. Further, the TGI in the experiment on BT-549 breast and in the experiment with PC-3 prostate was more than 100 µM each time.

As to `CC1=CCC2(C#N)CCC1C2O` (configuration not stated), the TGI in the experiment on SF-295 CNS, with HCC-2998 colon, in the experiment on NCI-H226 lung, with UACC-62 melanoma, in the experiment on NCI-H460 lung and in the experiment on M14 melanoma was more than 100 µM each time. Moreover, the TGI in the experiment with DLD-1 colon, with U251 CNS, with EKVX NSCLC, in the experiment on ACHN renal and in the experiment on M19-MEL melanoma was more than 100 µM each time.

As to `CC1=C(C(=O)N[C@@H](Cc2ccccc2)C(=O)O)N2C(=O)[C@@H](NC(=O)[C@@H](N)CC(C)C)[C@H]2SC1`, the TGI with MDA-N, with SF-295 CNS, in the experiment with HCC-2998 colon, with HS 578T breast, in the experiment on NCI-H226 lung and in the experiment on UACC-62 melanoma was more than 100 µM throughout. The TGI in the experiment with NCI-H460 lung, in the experiment on M14 melanoma, with U251 CNS, in the experiment on EKVX NSCLC, in the experiment with ACHN renal and in the experiment with HOP-92 NSCLC was more than 100 µM each time. The TGI with BT-549 breast and in the experiment on PC-3 prostate was more than 100 µM throughout.

Regarding `COc1ccc(OC)c([N+](=O)[O-])c1-c1nc2sccn2c1/C=N/N=C(N)N`, the TGI in the experiment on MDA-N is more than 100 µM; in the experiment on SF-295 CNS, more than 100 µM; in the experiment with HCC-2998 colon it was 79.4 µM; in the experiment on HS 578T breast it was 92.6 µM; in the experiment with NCI-H226 lung, more than 100 µM; with UACC-62 melanoma, more than 100 µM. Further, the TGI in the experiment with NCI-H460 lung, with M14 melanoma, with U251 CNS, in the experiment with EKVX NSCLC, with ACHN renal and with HOP-92 NSCLC was more than 100 µM in each case. Further, the TGI with BT-549 breast and with PC-3 prostate was more than 100 µM each time.

These data come from PubChem BioAssay (NCI).
